The pKd is −log10 of the Kd, conventionally taken in molar units. In general, viability refers to a read-out of living cells in per cent, often relative to untreated cells. In general, pEC50 refers to the EC50 on a negative log10 scale, so that one unit is a factor of ten. Read a low pEC50 as a large EC50.

Structures are written as SMILES. pEC50, pKd: −log10 of the molar value. Where a SMILES comes first, the peptide text is derived from it.

One data set has as its target T1, β-catenin (Homo sapiens, UniProt P35222).
T1 sequence (P35222 1-781): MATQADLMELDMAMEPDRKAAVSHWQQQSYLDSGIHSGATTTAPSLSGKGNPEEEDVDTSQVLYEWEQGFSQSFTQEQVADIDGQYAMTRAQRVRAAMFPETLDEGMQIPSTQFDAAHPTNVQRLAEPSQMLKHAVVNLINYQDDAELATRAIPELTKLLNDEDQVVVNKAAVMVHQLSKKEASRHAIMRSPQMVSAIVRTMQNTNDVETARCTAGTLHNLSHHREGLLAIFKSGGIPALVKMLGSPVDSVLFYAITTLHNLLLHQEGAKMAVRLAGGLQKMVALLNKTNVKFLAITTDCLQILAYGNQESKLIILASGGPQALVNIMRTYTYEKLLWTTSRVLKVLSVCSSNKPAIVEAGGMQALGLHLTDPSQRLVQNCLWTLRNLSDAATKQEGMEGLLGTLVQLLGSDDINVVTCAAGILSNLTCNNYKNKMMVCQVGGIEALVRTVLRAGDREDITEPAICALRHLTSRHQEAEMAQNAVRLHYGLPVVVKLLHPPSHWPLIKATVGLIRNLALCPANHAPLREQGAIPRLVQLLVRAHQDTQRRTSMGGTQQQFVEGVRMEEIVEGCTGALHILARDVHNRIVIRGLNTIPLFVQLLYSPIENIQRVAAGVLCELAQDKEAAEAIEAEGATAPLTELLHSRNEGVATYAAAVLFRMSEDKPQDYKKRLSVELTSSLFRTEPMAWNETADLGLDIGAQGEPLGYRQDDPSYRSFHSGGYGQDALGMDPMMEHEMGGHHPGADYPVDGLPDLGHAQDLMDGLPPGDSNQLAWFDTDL
Kind of data set: KD50 measurement using competitive fluorescence polarization (FP) with labelled TCF4. In kind it is binding. The note with it: fluorescence polarization, β-catenin; for pKd: read-out: β-Cat FP KD. Put shortly: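 Each compound competes against labelled TCF4 (5 nM) for 100 nM β-catenin at room temperature, tested over 10 nM to 30 uM. Signal: polarization at 470/520 nm excitation/emission. Three repeat experiments were performed.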
Background: Polarisation of emitted light reports the rotation of a fluorescent probe.

For data set [1] the following is noted: % Viability non-Wnt responsive cells.
Data set [2] addresses Wnt-responsive promoter (TCF/LEF). Kind of data set: Wnt-dependent luciferase reporter assay. The format is cell-based, murine. Put shortly: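 EC50 (uM) derived from inhibition of luminescence in Wnt3a-stimulated murine 3T3 cells expressing luciferase under a TCF/LEF promoter, with peptides added across a concentration range and vehicle as control.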
A general note: Reporter assays use an easily measured gene product as a stand-in for the process of interest.

`CC[C@H](C)[C@H](NC(=O)[C@H](CC(C)C)NC(=O)[C@H](Cc1ccccc1)NC(=O)[C@H](Cc1c[nH]c2ccccc12)NC)C(=O)N[C@@H](CO)C(=O)N[C@@H](Cc1ccccc1)C(=O)N[C@@H](Cc1c[nH]c2ccccc12)C(=O)O` [compound 111] (HELM PEPTIDE1{[meW].F.L.I.S.F.W}$$$$V2.0): on β-catenin, the “β-Cat FP Hill slope” value is recorded as 2.06 and the pKd was 6.00 to 6.40. Further, the viability in data set [1] is 99.8%. Moreover, the pEC50 in data set [2] is 4.82 to 5.12.

As to `CC[C@H](C)[C@H](NC(=O)[C@H](CC(C)C)NC(=O)[C@H](Cc1ccccc1)NC(=O)[C@H](Cc1c[nH]c2ccccc12)NC(=O)[C@@H](N)CCSC)C(=O)N[C@@H](CO)C(=O)N[C@@H](Cc1ccccc1)C(=O)N[C@@H](Cc1c[nH]c2ccccc12)C(=O)O` [compound 112] (H-MWFLISFW-OH), at β-catenin, the “β-Cat FP Hill slope” value is recorded as 1.82 and the pKd was 6.00 to 6.40. Moreover, the viability in data set [1] stood at 103%. The same molecule gave a pEC50 in data set [2] of over 5.12.

For `CC[C@H](C)[C@H](NC(=O)[C@H](CC(C)C)NC(=O)[C@@H](NC(=O)[C@H](Cc1c[nH]c2ccccc12)NC(=O)[C@H](CCSC)NC(=O)[C@@H](N)CCCCN)[C@@H](C)CC)C(=O)N[C@@H](CS)C(=O)N[C@@H](Cc1ccccc1)C(=O)N[C@@H](Cc1c[nH]c2ccccc12)C(=O)NCC(=O)O` [compound 113] (H-KMWILICFWG-OH), on β-catenin, the “β-Cat FP Hill slope” value is given as 0.7 and the pKd is 5.00 to 6.00. Further, in data set [1], the viability was found to be 102%. In data set [2], this molecule showed a pEC50 of under 4.52.

In the case of `CC[C@H](C)[C@H](NC(=O)[C@H](CC(C)C)NC(=O)[C@@H](NC(=O)[C@H](Cc1c[nH]c2ccccc12)NC(=O)[C@H](CCSC)NC(=O)[C@@H](N)Cc1c[nH]cn1)[C@@H](C)CC)C(=O)N[C@@H](CS)C(=O)N[C@@H](Cc1ccccc1)C(=O)N[C@@H](Cc1c[nH]c2ccccc12)C(=O)NCC(=O)O` [compound 114] (H-HMWILICFWG-OH), at β-catenin, the “β-Cat FP Hill slope” value is listed as 0.7 and the pKd is 5.00 to 6.00. Further, the viability in data set [1] is 123%. Further, the pEC50 in data set [2] is over 5.12.

As for `CC[C@H](C)[C@H](NC(=O)[C@H](CC(C)C)NC(=O)[C@@H](NC(=O)[C@H](Cc1c[nH]c2ccccc12)NC(=O)[C@H](CCSC)NC(=O)[C@@H](N)CCCNC(=N)N)[C@@H](C)CC)C(=O)N[C@@H](CS)C(=O)N[C@@H](Cc1ccccc1)C(=O)N[C@@H](Cc1c[nH]c2ccccc12)C(=O)NCC(=O)O` [compound 115] (H-RMWILICFWG-OH), at β-catenin, the “β-Cat FP Hill slope” value is 0.7 and the pKd was 5.00 to 6.00. The viability in data set [1] came out at 116%. For the same molecule, in data set [2], the negative-log EC50 (pEC50) was 4.65 to 4.82.

In the case of `CC[C@H](C)[C@H](NC(=O)[C@H](CC(C)C)NC(=O)[C@@H](NC(=O)[C@H](Cc1c[nH]c2ccccc12)NC(=O)[C@@H](N)CCSC)[C@@H](C)CC)C(=O)N[C@@H](CS)C(=O)N[C@@H](Cc1ccccc1)C(=O)N[C@@H](Cc1c[nH]c2ccccc12)C(=O)NCC(=O)O` [compound 116] (H-MWILICFWG-OH), at β-catenin, the “β-Cat FP Hill slope” value is recorded as 0.72 and the pKd was 6.00 to 6.40. Moreover, the viability in data set [1] turned out to be 123%. For the same molecule, the pEC50 in data set [2] was over 5.12.

`CC[C@H](C)[C@H](NC(=O)[C@H](CC(C)C)NC(=O)[C@@H](NC(=O)[C@H](Cc1c[nH]c2ccccc12)NC(=O)[C@@H](N)CCCCN)[C@@H](C)CC)C(=O)N[C@@H](CS)C(=O)N[C@@H](Cc1ccccc1)C(=O)N[C@@H](Cc1c[nH]c2ccccc12)C(=O)NCC(=O)O` [compound 117] (H-KWILICFWG-OH): the pKd on β-catenin was under 4.52. Besides, the viability in data set [1] is 138%. Also, the negative logarithm of the EC50 (pEC50) in data set [2] was 4.65 to 4.82.

As to `CC[C@H](C)[C@H](NC(=O)[C@H](CC(C)C)NC(=O)[C@@H](NC(=O)[C@H](Cc1c[nH]c2ccccc12)NC(=O)[C@@H](N)Cc1c[nH]cn1)[C@@H](C)CC)C(=O)N[C@@H](CS)C(=O)N[C@@H](Cc1ccccc1)C(=O)N[C@@H](Cc1c[nH]c2ccccc12)C(=O)NCC(=O)O` [compound 118] (H-HWILICFWG-OH), the negative-log Kd (pKd) at β-catenin was under 4.52. In addition, the viability in data set [1] was 99.9%. Also, the negative-log EC50 (pEC50) in data set [2] was over 5.12.

As for `CC[C@H](C)[C@H](NC(=O)[C@H](CC(C)C)NC(=O)[C@@H](NC(=O)[C@H](Cc1c[nH]c2ccccc12)NC(=O)[C@@H](N)CCCNC(=N)N)[C@@H](C)CC)C(=O)N[C@@H](CS)C(=O)N[C@@H](Cc1ccccc1)C(=O)N[C@@H](Cc1c[nH]c2ccccc12)C(=O)NCC(=O)O` [compound 119] (H-RWILICFWG-OH), at β-catenin, the “β-Cat FP Hill slope” value was found to be 0.7 and the pKd is 5.00 to 6.00. Also, in data set [1], the viability was 143%. The molecule also gave a pEC50 in data set [2] of 4.82 to 5.12.

Consider `CC[C@H](C)[C@@H]1NC(=O)[C@H](CC(C)C)NC(=O)[C@H]([C@@H](C)CC)NC(=O)[C@H](Cc2c[nH]c3ccccc23)NC(=O)[C@@H](N)CCCCNC(=O)C[C@@H](C(=O)O)NC(=O)[C@H](Cc2c[nH]c3ccccc23)NC(=O)[C@H](Cc2ccccc2)NC(=O)[C@H](CS)NC1=O` [compound 120] (HELM PEPTIDE1{K.W.I.L.I.C.F.W.D}$PEPTIDE1,PEPTIDE1,1:R3-9:R3$$$V2.0), for which the pKd at β-catenin was under 4.52. Moreover, the viability in data set [1] amounted to 123%. In data set [2], this molecule showed a pEC50 of over 5.12.

With `CC[C@H](C)[C@H](NC(=O)[C@H](Cc1c[nH]c2ccccc12)NC(=O)[C@@H](N)CCSC)C(=O)N[C@@H](CC(C)C)C(=O)N[C@H](C(=O)N[C@@H](CS)C(=O)NC(C)(Cc1ccccc1)C(=O)N[C@@H](Cc1c[nH]c2ccccc12)C(=O)NCC(=O)O)[C@@H](C)CC` (stereo partly drawn) [compound 121] (HELM PEPTIDE1{M.W.I.L.I.C.[CC(Cc1ccccc1)(N[*:1])C(=O)[*:2]].W.G}$$$$V2.0), at β-catenin, the “β-Cat FP Hill slope” value worked out at 0.74 and the pKd is over 6.40. For the same molecule, the viability in data set [1] worked out at 150%. The negative-log EC50 (pEC50) in data set [2] was over 5.12.

Consider `CC[C@H](C)[C@H](NC(=O)[C@H](CC(C)C)NC(=O)[C@@H](NC(=O)[C@H](Cc1c[nH]c2ccccc12)NC(=O)[C@H](CCSC)NC(=O)[C@@H](N)CCCCN)[C@@H](C)CC)C(=O)N[C@@H](CO)C(=O)N[C@@H](Cc1ccccc1)C(=O)N[C@@H](Cc1c[nH]c2ccccc12)C(=O)NCC(=O)O` [compound 122] (H-KMWILISFWG-OH), for which, on β-catenin, the “β-Cat FP Hill slope” value is on record as 1.55 and the pKd was over 6.40. For the same molecule, the viability in data set [1] was determined as 113%. Also, the negative-log EC50 (pEC50) in data set [2] was 4.52 to 4.65.

As to `CC[C@H](C)[C@H](NC(=O)[C@H](CC(C)C)NC(=O)[C@@H](NC(=O)[C@H](Cc1c[nH]c2ccccc12)NC(=O)[C@H](CCSC)NC(=O)[C@@H](N)Cc1c[nH]cn1)[C@@H](C)CC)C(=O)N[C@@H](CO)C(=O)N[C@@H](Cc1ccccc1)C(=O)N[C@@H](Cc1c[nH]c2ccccc12)C(=O)NCC(=O)O` [compound 123] (H-HMWILISFWG-OH), on β-catenin, the “β-Cat FP Hill slope” value came out at 1.07 and the pKd is over 6.40. In data set [1], the viability stood at 107%. Further, the pEC50 in data set [2] is over 5.12.

Take `CC[C@H](C)[C@H](NC(=O)[C@H](CC(C)C)NC(=O)[C@@H](NC(=O)[C@H](Cc1c[nH]c2ccccc12)NC(=O)[C@H](CCSC)NC(=O)[C@@H](N)CCCNC(=N)N)[C@@H](C)CC)C(=O)N[C@@H](CO)C(=O)N[C@@H](Cc1ccccc1)C(=O)N[C@@H](Cc1c[nH]c2ccccc12)C(=O)NCC(=O)O` [compound 124] (H-RMWILISFWG-OH): the pKd at β-catenin is under 4.52. Besides, the viability in data set [1] came out at 102%. Moreover, the pEC50 in data set [2] is 4.82 to 5.12.

On to `CC[C@H](C)[C@H](NC(=O)[C@H](CC(C)C)NC(=O)[C@@H](NC(=O)[C@H](Cc1c[nH]c2ccccc12)NC(=O)[C@@H](N)CCCCN)[C@@H](C)CC)C(=O)N[C@@H](CO)C(=O)N[C@@H](Cc1ccccc1)C(=O)N[C@@H](Cc1c[nH]c2ccccc12)C(=O)NCC(=O)O` [compound 125] (H-KWILISFWG-OH), for which, on β-catenin, the “β-Cat FP Hill slope” value is 0.7 and the negative logarithm of the Kd (pKd) is 6.00 to 6.40. Further, the viability in data set [1] is 113%. In addition, the pEC50 in data set [2] was 4.52 to 4.65.

Regarding `CC[C@H](C)[C@H](NC(=O)[C@H](CC(C)C)NC(=O)[C@@H](NC(=O)[C@H](Cc1c[nH]c2ccccc12)NC(=O)[C@@H](N)Cc1c[nH]cn1)[C@@H](C)CC)C(=O)N[C@@H](CO)C(=O)N[C@@H](Cc1ccccc1)C(=O)N[C@@H](Cc1c[nH]c2ccccc12)C(=O)NCC(=O)O` [compound 126] (H-HWILISFWG-OH), at β-catenin, the “β-Cat FP Hill slope” value is reported as 0.99 and the pKd is over 6.40. The viability in data set [1] stood at 111%. Also, in data set [2], the pEC50 is over 5.12.

These data come from US12441768B2, “Compositions and methods for treating endometriosis” (EndoMet Biosciences, Inc., priority 2018, dated 2025).
